The text below walks through data of US20250326771A1, “PIPERAZINE DERIVATIVES USEFUL IN HIV THERAPY” (VIIV HEALTHCARE COMPANY, priority 2022, published 2025).

Like-named read-outs stand apart in the source and are kept apart here.

The subject of experiment [1] is Jurkat HIV-luciferase clones. Description: Jurkat latency reversal assay. In kind it is cell-based. Particulars: Homo sapiens, 48 h; Jurkat latency reversal assay potency; read-out: Jurkat pEC50 (converted). In short, it runs like this:
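Luminescence read-out: Steady-Glo after 48 h, 37° C, on mixed Jurkat HIV-luc clones (C16, 115, N6; 5,000 cells/well total). Cpd 14-pt 3-fold dilutions, duplicate, top 10 μM, 0.5% DMSO. EC50 + max % activation vs vehicle via 4-parameter fit.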

The target in a further experiment is XIAP-BIR3 (Homo sapiens (Human), UniProt P98170). Description: BIR binding assay (FRET competition), XIAP BIR3. Particulars: for XIAP BIR3 vs BIR2 separation window: fold separation (FS) for XIAP. In short, it runs like this:
(§1)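 615/665 nm FRET ratio. Compound, His-domain and 200 nM AF647-SMAC peptide incubated 60 min, then 2 nM Eu-W1024 for 30 min. Domains: cIAP1-BIR3 50 nM; XIAP-BIR3 100 nM; cIAP1-BIR2, cIAP2-BIR2 325 nM each. 15-pt 3-fold series; variable-slope IC50.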

In a further experiment the target is cIAP1-BIR2 (Homo sapiens (Human), UniProt Q13490). Description: BIR binding assay (FRET competition), cIAP1 BIR2. In short, it runs like this:
as §1

The next experiment addresses XIAP-BIR2 (Homo sapiens (Human), UniProt P98170). Description: BIR binding assay (FRET competition), XIAP BIR2. The conditions noted are these: read-out: XIAP BIR2 (pIC50) (converted). The method, then: The BIR domain binding assays are FRET based competition assays that utilize His-tagged versions of each of the BIR2 and BIR3 domains from cIAP1, cIAP2, and XIAP (each domain assayed separately) each at a custom optimal concentration and a probe, 200 nM SMAC/DIABLO peptide AVPIAQKSE labelled with AlexaFluor647 (part #crb 1110326h, Discovery Peptides). The assay is conducted in 50 mM HEPES, […], 1 mM CHAPS, 5% Glycerol, 1 mM DTT, in dI water with a final pH of 7.4 and final volume of 20 uL. Final protein domain concentrations are: 50 nM cIAP1-BIR3 (Part #APT-11-370 Reaction Biology), 100 nM XIAP-BIR3 (Part #APT-11-351 Reaction Biology), 200 nM XIAP-BIR2 (Part #APT-11-470 Reaction Biology), 325 nM cIAP2-BIR2 (Part #APT-11-489 Reaction Biology), 50 nM cIAP2-BIR3 (Part #APT-11-372 Reaction Biology), 325 nM cIAP1-BIR2 (Part #APT-11-487 Reaction Biology). Compounds were plated using a HP Tecan D300 printer in a final total volume of 202 nl and DMSO concentration normalized across the 15-point, 3-fold dilution series. Peptide and probe were prepared at 2× relative to the concentrations above in binding buffer, 10 uL added to the prepared compound plates, and incubated for 60 minutes. LANCE Eu-W1024 (part #AD0401 Perkin Elmer #, vendor) was prepared at 2× concentration in binding buffer for final concentration of 2 nM, 10 uL added to each well, and plates incubated for 30 minutes. Plates were read on an ENVISION multifunction plate reader with […] laser excitation to obtain the 615 nm/665 nm emission ratio as indicative of probe:protein proximity. Data was analyzed using GraphPad PRISM and curves fit using log(inhibitor) vs. response—Variable slope (four […] method to obtain IC50 and pIC50 values.

A further experiment has as its target cIAP2-BIR2 (Homo sapiens (Human), UniProt Q13489). Description: BIR binding assay (FRET competition), cIAP2 BIR2. In short, it runs like this: as §1
The target in the next experiment is cIAP1-BIR3 (Homo sapiens (Human), UniProt Q13490). Description: BIR binding assay (FRET competition), cIAP1 BIR3. Particulars: for cIAP1 BIR3 vs BIR2 separation window: fold separation (FS) for cIAP1. In short, it runs like this: as §1
Sequence of cIAP1-BIR3 (Q13490 253-363): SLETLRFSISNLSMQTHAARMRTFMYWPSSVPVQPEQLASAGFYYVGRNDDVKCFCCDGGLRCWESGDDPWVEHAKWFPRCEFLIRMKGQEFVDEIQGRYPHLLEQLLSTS
The target in a further experiment is cIAP2-BIR3 (Homo sapiens (Human), UniProt Q13489). Description: BIR binding assay (FRET competition), cIAP2 BIR3. The conditions noted are these: for cIAP2 BIR3 vs BIR2 separation window: fold separation (FS) for cIAP2.
Sequence of cIAP2-BIR3 (Q13489 238-349): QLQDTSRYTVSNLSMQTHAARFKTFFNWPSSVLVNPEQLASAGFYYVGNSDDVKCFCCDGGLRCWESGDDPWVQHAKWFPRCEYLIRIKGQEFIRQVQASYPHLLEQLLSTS

Sequence of XIAP-BIR3 (P98170 241-356): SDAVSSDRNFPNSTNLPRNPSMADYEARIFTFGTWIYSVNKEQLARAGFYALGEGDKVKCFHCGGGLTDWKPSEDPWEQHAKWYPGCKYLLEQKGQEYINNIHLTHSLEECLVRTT
Sequence of XIAP-BIR2 (P98170 124-240): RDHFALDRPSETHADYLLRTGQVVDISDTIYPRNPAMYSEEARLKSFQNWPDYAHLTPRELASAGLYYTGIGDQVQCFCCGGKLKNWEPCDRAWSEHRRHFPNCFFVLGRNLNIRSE
Sequence of cIAP2-BIR2 (Q13489 158-242): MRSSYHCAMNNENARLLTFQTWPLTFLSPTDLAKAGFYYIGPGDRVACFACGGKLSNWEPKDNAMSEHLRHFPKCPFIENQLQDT
Sequence of cIAP1-BIR2 (Q13490 173-257): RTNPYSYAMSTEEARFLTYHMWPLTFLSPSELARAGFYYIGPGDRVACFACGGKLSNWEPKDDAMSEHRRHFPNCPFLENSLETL

On to `C[C@@H]1CN(CC(=O)N2CC(C)(C)c3[nH]c(=O)c(Cc4ccc(F)cc4)cc32)[C@@H](CN2CCC(CN(C)C(=O)c3ccc(C(=O)N(C)CC4CCN(C[C@H]5CN[C@H](C)CN5CC(=O)N5CC(C)(C)c6[nH]c(=O)c(Cc7ccc(F)cc7)cc65)CC4)cc3)CC2)CN1` [Example 96, N^1,N^4-bis((1-(((2R,5R)-1-(2-(6-(4-fluorobenzyl)-3,3-dimethyl-5-oxo-2,3,4,5-tetrahydro-1H-pyrrolo[3,2-b]pyridin-1-yl)-2-oxoethyl)-5-methylpiperazin-2-yl)methyl)piperidin-4-yl)methyl)-N^1,N^4-dimethylterephthalamide], for which the EC50 in experiment [1] is 63.1 to 316 nM. Besides, the IC50 is 7.94 to 15.8 nM on XIAP-BIR3; 1000 to 3160 nM at cIAP1-BIR2; 10000 to 51300 nM at XIAP-BIR2 (FRET competition binding); 1000 to 3160 nM on cIAP2-BIR2; 1.38 to 7.94 nM at cIAP1-BIR3; 7.94 to 15.8 nM at cIAP2-BIR3. Further, the “XIAP BIR3 vs BIR2 separation window” value at XIAP-BIR3 is given as “++++ (FS>10,000)”. In addition, on cIAP1-BIR3, the “cIAP1 BIR3 vs BIR2 separation window” value is on record as “+++ (10,000>FS>1,000)”. The “cIAP2 BIR3 vs BIR2 separation window” value at cIAP2-BIR3 is on record as “+++ (10,000>FS>1,000)”.

Consider `C[C@@H]1CN(CC(=O)N2CC(C)(C)c3[nH]c(=O)c(Cc4ccc(F)cc4)cc32)[C@@H](CN2CCC(CC(=O)NCc3ccc(CNC(=O)CC4CCN(C[C@H]5CN[C@H](C)CN5CC(=O)N5CC(C)(C)c6[nH]c(=O)c(Cc7ccc(F)cc7)cc65)CC4)cc3)CC2)CN1` [Example 105, N,N′-(1,4-phenylenebis(methylene))bis(2-(1-(((2R,5R)-1-(2-(6-(4-fluorobenzyl)-3,3-dimethyl-5-oxo-2,3,4,5-tetrahydro-1H-pyrrolo[3,2-b]pyridin-1-yl)-2-oxoethyl)-5-methylpiperazin-2-yl)methyl)piperidin-4-yl)acetamide)], for which the EC50 in experiment [1] is 63.1 to 316 nM. For the same compound, the IC50 on XIAP-BIR3 is 7.94 to 15.8 nM; at cIAP1-BIR2, 3160 to 10000 nM; on XIAP-BIR2 (FRET competition binding) it was 10000 to 51300 nM; on cIAP2-BIR2, 3160 to 10000 nM; on cIAP1-BIR3, 7.94 to 15.8 nM; on cIAP2-BIR3, 7.94 to 15.8 nM. Further, at XIAP-BIR3, the “XIAP BIR3 vs BIR2 separation window” value was “++++ (FS>10,000)”. Also, on cIAP1-BIR3, the “cIAP1 BIR3 vs BIR2 separation window” value was “+++ (10,000>FS>1,000)”. Further, the “cIAP2 BIR3 vs BIR2 separation window” value at cIAP2-BIR3 is reported as “+++ (10,000>FS>1,000)”.

For the compound `C[C@@H]1CN(CC(=O)N2CC(C)(C)c3[nH]c(=O)c(Cc4ccc(F)cc4)cc32)[C@@H](CN2CCC(CN(C)Cc3ccc(CN(C)CC4CCN(C[C@H]5CN[C@H](C)CN5CC(=O)N5CC(C)(C)c6[nH]c(=O)c(Cc7ccc(F)cc7)cc65)CC4)cc3)CC2)CN1` [Example 100, 1,1′-(2,2′-((3R,3′R,6R,6′R)-(((((1,4-phenylenebis(methylene))bis(methylazanediyl))bis(methylene))bis(piperidine-4,1-diyl))bis(methylene))bis(3-methylpiperazine-6,1-diyl))bis(acetyl))bis(6-(4-fluorobenzyl)-3,3-dimethyl-1,2,3,4-tetrahydro-5H-pyrrolo[3,2-b]pyridin-5-one)], the EC50 in experiment [1] is 0.49 to 12.6 nM. In addition, the IC50 is 15.8 to 31.6 nM at XIAP-BIR3; 1000 to 3160 nM at cIAP1-BIR2; 10000 to 51300 nM on XIAP-BIR2 (FRET competition binding); 3160 to 10000 nM at cIAP2-BIR2; 7.94 to 15.8 nM at cIAP1-BIR3; 7.94 to 15.8 nM at cIAP2-BIR3. Further, the “XIAP BIR3 vs BIR2 separation window” value on XIAP-BIR3 was “++++ (FS>10,000)”. Besides, on cIAP1-BIR3, the “cIAP1 BIR3 vs BIR2 separation window” value is “+++ (10,000>FS>1,000)”. Besides, the “cIAP2 BIR3 vs BIR2 separation window” value on cIAP2-BIR3 is given as “+++ (10,000>FS>1,000)”.

Turning to `C[C@@H]1CN(CC(=O)N2CC(C)(C)c3[nH]c(=O)c(Cc4ccc(F)cc4)cc32)[C@@H](CN2CCO[C@H](C(=O)NCCN3CCN(C(=O)[C@@H]4CN(C[C@H]5CN[C@H](C)CN5CC(=O)N5CC(C)(C)c6[nH]c(=O)c(Cc7ccc(F)cc7)cc65)CCO4)CC3)C2)CN1` [Compound 134, (S)-4-(((2R,5R)-1-(2-(6-(4-fluorobenzyl)-3,3-dimethyl-5-oxo-2,3,4,5-tetrahydro-1H-pyrrolo[3,2-b]pyridin-1-yl)-2-oxoethyl)-5-methylpiperazin-2-yl)methyl)-N-(2-(4-((S)-4-(((2R,5R)-1-(2-(6-(4-fluorobenzyl)-3,3-dimethyl-5-oxo-2,3,4,5-tetrahydro-1H-pyrrolo[3,2-b]pyridin-1-yl)-2-oxoethyl)-5-methylpiperazin-2-yl)methyl)morpholine-2-carbonyl)piperazin-1-yl)ethyl)morpholine-2-carboxamide], the EC50 in experiment [1] is 12.6 to 63.1 nM. The IC50 on XIAP-BIR3 was 31.6 to 501 nM; at cIAP1-BIR2, 1000 to 3160 nM; on XIAP-BIR2 (FRET competition), 10000 to 51300 nM; on cIAP2-BIR2, 1000 to 3160 nM; at cIAP1-BIR3, 15.8 to 31.6 nM; on cIAP2-BIR3 it was 7.94 to 15.8 nM. The “XIAP BIR3 vs BIR2 separation window” value on XIAP-BIR3 is listed as “+++ (10,000>FS>1,000)”. Further, on cIAP1-BIR3, the “cIAP1 BIR3 vs BIR2 separation window” value is “++ (1,000>FS>100)”. In addition, the “cIAP2 BIR3 vs BIR2 separation window” value at cIAP2-BIR3 was “+++ (10,000>FS>1,000)”.

As for `C[C@@H]1CN(CC(=O)N2CC(C)(C)c3[nH]c(=O)c(Cc4ccc(F)cc4)cc32)[C@@H](CN2CCN(Cc3cn(CC(=O)N4CCN(C[C@H]5CN[C@H](C)CN5CC(=O)N5CC(C)(C)c6[nH]c(=O)c(Cc7ccc(F)cc7)cc65)[C@H](C)C4)nn3)C[C@H]2C)CN1` [Compound 155], the EC50 in experiment [1] was 316 to 3310 nM. Further, the IC50 at XIAP-BIR3 is 15.8 to 31.6 nM; at cIAP1-BIR2, 1000 to 3160 nM; at XIAP-BIR2 (FRET competition), 10000 to 51300 nM; on cIAP2-BIR2, 1000 to 3160 nM; at cIAP1-BIR3, 1.38 to 7.94 nM; on cIAP2-BIR3, 7.94 to 15.8 nM. Further, the “XIAP BIR3 vs BIR2 separation window” value on XIAP-BIR3 is reported as “++++ (FS>10,000)”. Further, the “cIAP1 BIR3 vs BIR2 separation window” value on cIAP1-BIR3 is “+++ (10,000>FS>1,000)”. The “cIAP2 BIR3 vs BIR2 separation window” value at cIAP2-BIR3 is “+++ (10,000>FS>1,000)”.

As to `C[C@@H]1CN(CC(=O)N2CC(C)(C)c3[nH]c(=O)c(Cc4ccc(F)cc4)cc32)[C@@H](CN2CCN(C(=O)c3ccc4cc(C(=O)N5CCN(C[C@H]6CN[C@H](C)CN6CC(=O)N6CC(C)(C)c7[nH]c(=O)c(Cc8ccc(F)cc8)cc76)[C@H](C)C5)ccc4c3)C[C@H]2C)CN1` [Example 18, 1,1′-(2,2′-((3R,3′R,6R,6′R)-(((2R,2′R)-(naphthalene-2,6-dicarbonyl)bis(2-methylpiperazine-4,1-diyl))bis(methylene))bis(3-methylpiperazine-6,1-diyl))bis(acetyl))bis(6-(4-fluorobenzyl)-3,3-dimethyl-1,2,3,4-tetrahydro-5H-pyrrolo[3,2-b]pyridin-5-one)], the EC50 in experiment [1] was 12.6 to 63.1 nM. In addition, the IC50 on XIAP-BIR3 is 1.38 to 7.94 nM; on cIAP1-BIR2, 1000 to 3160 nM; at XIAP-BIR2 (FRET competition binding) it was 10000 to 51300 nM; at cIAP2-BIR2, 1000 to 3160 nM; on cIAP1-BIR3, 1.38 to 7.94 nM; at cIAP2-BIR3, 1.38 to 7.94 nM. The “XIAP BIR3 vs BIR2 separation window” value at XIAP-BIR3 is reported as “++++ (FS>10,000)”. For the same compound, at cIAP1-BIR3, the “cIAP1 BIR3 vs BIR2 separation window” value is listed as “+++ (10,000>FS>1,000)”. Besides, the “cIAP2 BIR3 vs BIR2 separation window” value at cIAP2-BIR3 was “+++ (10,000>FS>1,000)”.
